Source: PubChem BioAssay AID1963863 (Molecular Pharmacology Branch, DTP, NCI, 2024)

Test system: 931267-113-T-J1-PDC KRAS spheroid with HUVEC/MSC, viability
Test: Anticancer human tumor 931267-113-T-J1-PDC patient-derived colon adenocarcinoma cell line growth inhibition [KRAS2]
Settings: for IC50: curve of first compound; for viability, T/C: stronger effect = lower value
Text: Multicellular complex tumor spheroid response to RAS pathway inhibitors in combination with a targeted agents in patient-derived cell lines with oncogenic KRAS variants from multiple cancer types
A high-throughput screen of multi-cell type tumor spheroids was designed to identify active combinations of targeted small molecules and KRAS pathway inhibitors. Complex spheroids include a stromal component modeled by human endothelial cells (HUVEC) and fibroblasts modeled by human mesenchymal stem cells (MSCs). The concentration ranges selected for each drug and investigational agent were based upon clinically achievable concentrations if the clinical Cmax of the agent was known.
Compounds. The drugs and investigational agents: BI-3406 (NSC825286), BAY-293 (NSC824723), batoprotafib (TNO155; NSC825523), sotorasib (AMG 510; NSC818433), MRTX1257 (NSC819558), elimusertib (BAY 1895344; NSC800525), molibresib (GSK525762; NSC774829), temuterkib (LY3214996; NSC803410), venetoclax (NSC766270), alisertib (NSC759677), olaparib (NSC753686), talazoparib (NSC767125), erdafitinib (NSC781556), ipatasertib (NSC767898), cabozantinib (NSC761068), nintedanib (NSC756659), abemaciclib (NSC768073), docetaxel (NSC628503), trametinib (NSC758246), and sapanisertib (NSC764658) were obtained from the National Cancer Institute (NCI) Developmental Therapeutics Program Chemical Repository. The FDA-approved anticancer drug set is available from the Developmental Therapeutics Program. […] The stock solutions were prepared in dimethyl sulfoxide (DMSO, Sigma-Aldrich, St. Louis, MO, cat. D2650) at 800-fold the tested concentration and stored at -70 degrees C prior to their use. All drugs and investigational agents were tested over a range starting from a high concentration at or near the clinical Cmax and decreasing in half-log increments. If the clinical Cmax for an agent had not been determined, the highest concentration tested was 10 microM.
Cell Culture. All cells were maintained in an incubator at 37 degrees C and 5% CO2 with 95% humidity. The PDC lines were cultured according to standard operating procedures established by the NCI PDMR (https://pdmr.cancer.gov/sops/default.htm). Briefly, all PDCs were thawed and cultured in Matrigel-coated flasks prepared with a working solution of 1X Ham's F-12 nutrient mix, without supplementation (Invitrogen, Waltham, MA, cat. 11765054), 100 U/mL penicillin-streptomycin (Invitrogen, cat. 15140122), and 2.5% Matrigel (Corning Inc., Corning, NY, cat. 354248) for the first three passages. All PDCs were cultured in complete DMEM/F-12 media containing advanced DMEM/F-12 (Invitrogen, cat. 12634028), 4.9% defined fetal bovine serum, heat inactivated (HyClone Laboratories Inc., Logan, UT, cat. SH30070.03HI), 389 ng/mL hydrocortisone (Sigma-Aldrich, cat. H4001), 9.7 ng/mL human EGF recombinant protein (Invitrogen, cat. PHG0313), 23.4 microg/mL adenine (Sigma-Aldrich, cat. A2786), 97.3 U/mL penicillin-streptomycin (Invitrogen, cat. 15140122), 1.9 mM L-glutamine (Invitrogen, cat. 25030081), and 9.7 microM Y-27632 dihydrochloride (Tocris Bioscience, Bristol, United Kingdom, cat. 1254). The PDCs were cultured in complete DMEM/F12 media without 9.7 microM Y-27632 dihydrochloride for at least two passages prior to the screen. The established cell line HOP-62 was cultured in RPMI 1640 medium, HEPES (Invitrogen, cat. 22400105) with 10% defined fetal bovine serum (HyClone Laboratories Inc., cat. SH30070.03) and 2 mM L-glutamine (Invitrogen, cat. 25030081). The pooled donor HUVEC were cultured in endothelial cell growth medium 2 (PromoCell, Heidelberg, Germany, cat. C-22011) and the hMSC were cultured in mesenchymal stem cell growth medium 2 (PromoCell, cat. C-28009). For all experiments, HUVEC and hMSC were used at passages </=5, while the malignant cell lines were used at passages </=15. […]

[1] = second compound 0.1 µM, first compound 0.01 µM
[2] = second compound 0.1 µM, first compound 0.0316 µM
[3] = second compound 0.1 µM, first compound 0.1 µM
[4] = second compound 0.1 µM, first compound 0.316 µM
[5] = second compound 0.1 µM, first compound 1 µM
[6] = second compound 0.1 µM, first compound 3.16 µM
[7] = second compound 0.316 µM, first compound 0.01 µM
[8] = second compound 0.316 µM, first compound 0.0316 µM
[9] = second compound 0.316 µM, first compound 0.1 µM
[10] = second compound 0.316 µM, first compound 0.316 µM
[11] = second compound 0.316 µM, first compound 1 µM
[12] = second compound 0.316 µM, first compound 3.16 µM
[13] = second compound 1 µM, first compound 0.01 µM
[14] = second compound 1 µM, first compound 0.0316 µM
[15] = second compound 1 µM, first compound 0.1 µM
[16] = second compound 1 µM, first compound 0.316 µM
[17] = second compound 1 µM, first compound 1 µM
[18] = second compound 1 µM, first compound 3.16 µM
[19] = second compound 3.16 µM, first compound 0.01 µM
[20] = second compound 3.16 µM, first compound 0.0316 µM
[21] = second compound 3.16 µM, first compound 0.1 µM
[22] = second compound 3.16 µM, first compound 0.316 µM
[23] = second compound 3.16 µM, first compound 1 µM
[24] = second compound 3.16 µM, first compound 3.16 µM
[25] = second compound 10 µM, first compound 0.01 µM
[26] = second compound 10 µM, first compound 0.0316 µM
[27] = second compound 10 µM, first compound 0.1 µM
[28] = second compound 10 µM, first compound 0.316 µM
[29] = second compound 10 µM, first compound 1 µM
[30] = second compound 10 µM, first compound 3.16 µM
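Note: compound exposure lasted 7 days before the readout.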
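Throughout, for viability, T/C: 100% = DMSO vehicle control viability.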

SMILES | IC50 (second compound 0.1 µM) [nM] | IC50 (second compound 0.316 µM) [nM] | IC50 (second compound 1 µM) [nM] | IC50 (second compound 3.16 µM) [nM] | IC50 (second compound 10 µM) [nM] | viability, T/C [2] [%] | viability, T/C [3] [%] | viability, T/C [4] [%] | viability, T/C [5] [%] | viability, T/C [8] [%] | viability, T/C [9] [%] | viability, T/C [10] [%] | viability, T/C [11] [%] | viability, T/C [14] [%] | viability, T/C [15] [%] | viability, T/C [16] [%] | viability, T/C [17] [%] | viability, T/C [20] [%] | viability, T/C [21] [%] | viability, T/C [22] [%] | also measured
CC1COCCN1c1cc(-c2ccnn2C)c2ccnc(-c3ccn[nH]3)c2n1 (stereo not given) + C=CC(=O)N1CCN(c2nc(=O)n(-c3c(C)ccnc3C(C)C)c3nc(-c4c(O)cccc4F)c(F)cc23)C(C)C1 | 42 | 50.4 | 44.4 | 53.5 | 28.1 | 58 | 25.9 | 17.3 | 20 | 68.7 | 22.5 | 18.1 | 19.9 | 59.5 | 27.5 | 21.1 | 22.1 | 71.4 | 24.8 | 18.4 | viability, T/C [1]: 95.5%; viability, T/C [6]: 19.7%; viability, T/C [7]: 90.1%; viability, T/C [12]: 20.4%; viability, T/C [13]: 122%; viability, T/C [18]: 22.6%; viability, T/C [19]: 117%; viability, T/C [23]: 21.8%; viability, T/C [24]: 22.1%; viability, T/C [25]: 92.8%; viability, T/C [26]: 45.1%; viability, T/C [27]: 24.1%; viability, T/C [28]: 23.9%; viability, T/C [29]: 24.2%; viability, T/C [30]: 19.9%
CCN1CCN(Cc2ccc(Nc3ncc(F)c(-c4cc(F)c5nc(C)n(C(C)C)c5c4)n3)nc2)CC1 + C=CC(=O)N1CCN(c2nc(=O)n(-c3c(C)ccnc3C(C)C)c3nc(-c4c(O)cccc4F)c(F)cc23)C(C)C1 | > 1000 | > 1000 | > 1000 | > 1000 | 367 | 81.2 | 87.4 | 71.8 | 50.8 | 82.5 | 65.8 | 60.8 | 50.8 | 78.4 | 80.9 | 60.7 | 51 | 83.5 | 73.6 | 74.3 | viability, T/C (second compound 0.1 µM, first compound 0.00316 µM): 103%; viability, T/C [1]: 73.6%; viability, T/C (second compound 0.316 µM, first compound 0.00316 µM): 95.2%; viability, T/C [7]: 88.3%; viability, T/C (second compound 1 µM, first compound 0.00316 µM): 105%; viability, T/C [13]: 83.1%; viability, T/C (second compound 3.16 µM, first compound 0.00316 µM): 94%; viability, T/C [19]: 90.3%; viability, T/C [23]: 47.5%; viability, T/C (second compound 10 µM, first compound 0.00316 µM): 89.1%; viability, T/C [25]: 99.9%; viability, T/C [26]: 90.2%; viability, T/C [27]: 72.5%; viability, T/C [28]: 60.1%; viability, T/C [29]: 4.51%
CCNC(=O)CC1N=C(c2ccc(Cl)cc2)c2cc(OC)ccc2-n2c(C)nnc21 (stereo not given) + C=CC(=O)N1CCN(c2nc(=O)n(-c3c(C)ccnc3C(C)C)c3nc(-c4c(O)cccc4F)c(F)cc23)C(C)C1 | 2650 | 4870 | 4480 | > 10000 | 4230 | 103 | 97.6 | 80.8 | 68.5 | 88.4 | 81.2 | 68.3 | 59.7 | 120 | 82.8 | 84.4 | 64.1 | 101 | 92.7 | 78.6 | viability, T/C [6]: 43%; viability, T/C (second compound 0.1 µM, first compound 10 µM): 40.8%; viability, T/C [12]: 55%; viability, T/C (second compound 0.316 µM, first compound 10 µM): 44.5%; viability, T/C [18]: 56.1%; viability, T/C (second compound 1 µM, first compound 10 µM): 40.8%; viability, T/C [23]: 65.3%; viability, T/C [24]: 59.1%; viability, T/C (second compound 3.16 µM, first compound 10 µM): 51.8%; viability, T/C [26]: 94.5%; viability, T/C [27]: 102%; viability, T/C [28]: 82.6%; viability, T/C [29]: 74.6%; viability, T/C [30]: 50.7%; viability, T/C (second compound 10 µM, first compound 10 µM): 43%
